Results: ChEMBL document CHEMBL5321258, “Anticancer evaluation of benzofuran derivatives linked to dipiperazine moiety” (Bioorg Med Chem Lett, 2023)

Key:
[1] = system: A549; test: Anticancer activity against human A549 cells assessed as inhibition rate at 10 uM by SRB assay relative to control; format: functional
[2] = system: A549; test: Anticancer activity against human A549 cells assessed as inhibition rate at 30 uM by SRB assay relative to control; format: functional
[3] = system: HeLa; test: Anticancer activity against human Hela cells assessed as inhibition rate at 30 uM by SRB assay relative to control; format: functional
[4] = system: HeLa; test: Anticancer activity against human Hela cells assessed as inhibition rate at 10 uM by SRB assay relative to control; format: functional
[5] = system: A549; test: Anticancer activity against human A549 cells assessed as inhibition of cell proliferation by SRB assay; format: functional, cell-based
[6] = system: HeLa; test: Anticancer activity against human HeLa cells assessed as inhibition of cell proliferation by SRB assay; format: functional, cell-based
[7] = system: A549; test: Induction of apoptosis in human A549 cells assessed as early apoptotic cells at 2.5 uM incubated for 24 hrs AnnexinV/ propidium iodide staining based flow cytometry (Rvb= 0.79 %); format: functional
[8] = system: A549; test: Induction of apoptosis in human A549 cells assessed as early apoptotic cells at 5 uM incubated for 24 hrs AnnexinV/ propidium iodide staining based flow cytometry (Rvb= 0.79 %); format: functional
[9] = system: A549; test: Induction of apoptosis in human A549 cells assessed as viable cells at 5 uM incubated for 24 hrs AnnexinV/ propidium iodide staining based flow cytometry (Rvb= 98.5 %); format: functional; conditions: read-out: Activity
[10] = system: A549; test: Induction of apoptosis in human A549 cells assessed as viable cells at 2.5 uM incubated for 24 hrs AnnexinV/ propidium iodide staining based flow cytometry (Rvb= 98.5 %); format: functional; conditions: read-out: Activity
[11] = system: A549; test: Induction of apoptosis in human A549 cells assessed as late apoptotic cells at 2.5 uM incubated for 24 hrs AnnexinV/ propidium iodide staining based flow cytometry (Rvb= 0.54 %); format: functional
[12] = system: A549; test: Induction of apoptosis in human A549 cells assessed as late apoptotic cells at 5 uM incubated for 24 hrs AnnexinV/ propidium iodide staining based flow cytometry (Rvb= 0.54 %); format: functional
[13] = system: A549; test: Induction of apoptosis in human A549 cells assessed as necrotic cells at 2.5 uM incubated for 24 hrs AnnexinV/ propidium iodide staining based flow cytometry (Rvb= 0.16 %); format: functional
[14] = system: A549; test: Induction of apoptosis in human A549 cells assessed as necrotic cells at 5 uM incubated for 24 hrs AnnexinV/ propidium iodide staining based flow cytometry (Rvb= 0.16 %); format: functional

| SMILES | inhibition at 10 µM [1] | inhibition at 30 µM [2] | inhibition at 30 µM [3] | inhibition at 10 µM [4] | IC50 [5] | IC50 [6] | Activity [7] | Activity [8] | viability at 5 µM [9] | viability at 2.5 µM [10] | Activity [11] | Activity [12] | Activity [13] | Activity [14] |
| --- | --- | --- | --- | --- | --- | --- | --- | --- | --- | --- | --- | --- | --- | --- |
| CCN(CC)c1ccc2cc(C(=O)c3ccc(OCCN4CCN(C(=O)CN5CCN(C(=O)c6cc(F)c(F)c(F)c6F)CC5)CC4)cc3)oc2c1 | 20% | 61.1% | 86.6% | 28% | – | – | – | – | – | – | – | – | – | – |
| C=C(C)C(=O)N1CCN(CC(=O)N2CCN(CCOc3ccc(C(=O)c4cc5ccc(N(CC)CC)cc5o4)cc3)CC2)CC1 | 36.1% | 69.8% | 3.2% | -2.1% | – | – | – | – | – | – | – | – | – | – |
| CCN(CC)c1ccc2cc(C(O)c3ccc(OCCN4CCN(C(=O)CN5CCN(C(=O)c6ccccc6C(F)(F)F)CC5)CC4)cc3)oc2c1 (stereo not drawn) | 43.6% | 57.8% | 49.8% | 30.6% | – | – | – | – | – | – | – | – | – | – |
| CCN(CC)c1ccc2cc(C(=O)c3ccc(OCCN4CCN(C(=O)CN5CCN(C(=O)c6ccccc6F)CC5)CC4)cc3)oc2c1 | 66.4% | 76.9% | 56.9% | 31.4% | – | – | – | – | – | – | – | – | – | – |
| CCN(CC)c1ccc2cc(C(=O)c3ccc(OCCN4CCN(C(=O)CN5CCN(C(=O)c6ccc(F)cc6)CC5)CC4)cc3)oc2c1 | 29% | 45.3% | 57% | 26% | – | – | – | – | – | – | – | – | – | – |
| CCN(CC)c1ccc2cc(C(O)c3ccc(OCCN4CCN(C(=O)CN5CCN(C(=O)c6ccc(Br)cc6C(F)(F)F)CC5)CC4)cc3)oc2c1 (stereo not drawn) | 69.7% | 72.3% | 9.7% | -1.6% | – | – | – | – | – | – | – | – | – | – |
| CCN(CC)c1ccc2cc(C(=O)c3ccc(OCCN4CCN(C(=O)CN5CCN(C(=O)c6ccc(OC)cc6)CC5)CC4)cc3)oc2c1 | 65.3% | 85.8% | 64.1% | 27.5% | 8.06 µM | 27.2 µM | – | – | – | – | – | – | – | – |
| CCN(CC)c1ccc2cc(C(=O)c3ccc(OCCN4CCN(C(=O)CN5CCN(C(=O)c6ccc(C)cc6)CC5)CC4)cc3)oc2c1 | 54.3% | 62.4% | 90.1% | 61.4% | 9.17 µM | 7.09 µM | – | – | – | – | – | – | – | – |
| CCN(CC)c1ccc2cc(C(=O)c3ccc(OCCN4CCN(C(=O)CN5CCN(C(=O)c6ccc(Cl)cc6)CC5)CC4)cc3)oc2c1 | 22.9% | 78.1% | 89% | 47.5% | 24.9 µM | 14.8 µM | – | – | – | – | – | – | – | – |
| CCN(CC)c1ccc2cc(C(O)c3ccc(OCCN4CCN(C(=O)CN5CCN(C(=O)c6ccc7ccccc7c6)CC5)CC4)cc3)oc2c1 (stereo not drawn) | 77.9% | 89.2% | 24% | 12.1% | 3.05 µM | > 30 µM | – | – | – | – | – | – | – | – |
| CCN(CC)c1ccc2cc(C(=O)c3ccc(OCCN4CCN(C(=O)CN5CCN(C(=O)c6cc(Cl)cc(Cl)c6)CC5)CC4)cc3)oc2c1 | 39.8% | 49.3% | 41.7% | 20.1% | – | – | – | – | – | – | – | – | – | – |
| CCN(CC)c1ccc2cc(C(=O)c3ccc(OCCN4CCN(C(=O)CN5CCN(C(=O)c6cccc(C(F)(F)F)c6)CC5)CC4)cc3)oc2c1 | 49.3% | 57.8% | 70.1% | 27.4% | – | – | – | – | – | – | – | – | – | – |
| C=C(C)C(=O)N1CCN(CC(=O)N2CCN(CCOc3ccc(C(O)c4cc5ccc(N(CC)CC)cc5o4)cc3)CC2)CC1 (stereo not drawn) | 22.2% | 55.5% | 30.5% | 5.4% | – | – | – | – | – | – | – | – | – | – |
| C=CC(=O)N1CCN(CC(=O)N2CCN(CCOc3ccc(C(O)c4cc5ccc(N(CC)CC)cc5o4)cc3)CC2)CC1 (stereo not drawn) | 51.9% | 64% | 90.7% | 53.8% | 9.18 µM | 6.85 µM | – | – | – | – | – | – | – | – |
| CCN(CC)c1ccc2cc(C(=O)c3ccc(OCCN4CCN(C(=O)CN5CCN(C(=O)c6ccccc6C(F)(F)F)CC5)CC4)cc3)oc2c1 | 27.3% | 34.5% | 44.1% | 25.5% | – | – | – | – | – | – | – | – | – | – |
| CCN(CC)c1ccc2cc(C(O)c3ccc(OCCN4CCN(C(=O)CN5CCN(C(=O)c6ccc([N+](=O)[O-])cc6)CC5)CC4)cc3)oc2c1 (stereo not drawn) | 19.2% | 33% | 28.3% | 17.2% | – | – | – | – | – | – | – | – | – | – |
| CCN(CC)c1ccc2cc(C(=O)c3ccc(OCCN4CCN(C(=O)CN5CCN(C(=O)c6ccc(Br)cc6C(F)(F)F)CC5)CC4)cc3)oc2c1 | 41.4% | 53.8% | 62.2% | 33.2% | – | – | – | – | – | – | – | – | – | – |
| CCN(CC)c1ccc2cc(C(O)c3ccc(OCCN4CCN(C(=O)CN5CCN(C(=O)c6ccc(OC)cc6)CC5)CC4)cc3)oc2c1 (stereo not drawn) | 55.2% | 63.5% | 66.7% | 42% | – | – | – | – | – | – | – | – | – | – |
| CCN(CC)c1ccc2cc(C(=O)c3ccc(OCCN4CCN(C(=O)CN5CCN(C(=O)c6ccc7ccccc7c6)CC5)CC4)cc3)oc2c1 | 30.9% | 78.8% | 85.3% | 48.7% | 21.4 µM | 11.2 µM | – | – | – | – | – | – | – | – |
| CCN(CC)c1ccc2cc(C(O)c3ccc(OCCN4CCN(C(=O)CN5CCN(C(=O)c6ccc(C)cc6)CC5)CC4)cc3)oc2c1 (stereo not drawn) | 77.9% | 97.2% | 35.9% | 15.9% | 1.54 µM | > 30 µM | – | – | – | – | – | – | – | – |
| CCN(CC)c1ccc2cc(C(=O)c3ccc(OCCN4CCN(C(=O)CN5CCN(C(=O)c6ccc([N+](=O)[O-])cc6)CC5)CC4)cc3)oc2c1 | 16.5% | 22.9% | 24% | 17.2% | – | – | – | – | – | – | – | – | – | – |
| CCN(CC)c1ccc2cc(C(O)c3ccc(OCCN4CCN(C(=O)CN5CCN(C(=O)c6cccc(C(F)(F)F)c6)CC5)CC4)cc3)oc2c1 (stereo not drawn) | 65.1% | 81.2% | 69.5% | 43.9% | 8.96 µM | 28.3 µM | – | – | – | – | – | – | – | – |
| C=CC(=O)N1CCN(CC(=O)N2CCN(CCOc3ccc(C(=O)c4cc5ccc(N(CC)CC)cc5o4)cc3)CC2)CC1 | 2.3% | 9.3% | 32.1% | 18.6% | – | – | – | – | – | – | – | – | – | – |
| CCN(CC)c1ccc2cc(C(O)c3ccc(OCCN4CCN(C(=O)CN5CCN(C(=O)c6ccccc6F)CC5)CC4)cc3)oc2c1 (stereo not drawn) | 55.3% | 75.6% | 92% | 79% | 8.63 µM | 4.72 µM | – | – | – | – | – | – | – | – |
| CCN(CC)c1ccc2cc(C(=O)c3ccc(OCCN4CCN(C(=O)CN5CCN(C(=O)c6ccc(C(F)(F)F)cc6)CC5)CC4)cc3)oc2c1 | 54.8% | 77.9% | 94.9% | 50.7% | 7.02 µM | 8.64 µM | – | – | – | – | – | – | – | – |
| CCc1ccc(C(=O)N2CCN(CC(=O)N3CCN(CCOc4ccc(C(O)c5cc6ccc(N(CC)CC)cc6o5)cc4)CC3)CC2)cc1 (stereo not drawn) | 47.9% | 73.2% | 75.2% | 36.1% | – | – | – | – | – | – | – | – | – | – |
| CCN(CC)c1ccc2cc(C(O)c3ccc(OCCN4CCN(C(=O)CN5CCN(C(=O)c6ccc(F)cc6)CC5)CC4)cc3)oc2c1 (stereo not drawn) | 80.1% | 83.9% | 40.6% | 20.4% | 0.43 µM | > 30 µM | 5.88% | 28.5% | 23.4% | 71% | 18.9% | 39% | 4.26% | 9.18% |
| CCN(CC)c1ccc2cc(C(O)c3ccc(OCCN4CCN(C(=O)CN5CCN(C(=O)c6ccc(C(F)(F)F)cc6)CC5)CC4)cc3)oc2c1 (stereo not drawn) | 92.5% | 95.2% | 19.8% | 11.3% | 0.12 µM | > 30 µM | 1.07% | 1.95% | 94% | 97% | 1.73% | 3.49% | 0.25% | 0.55% |
| CCc1ccc(C(=O)N2CCN(CC(=O)N3CCN(CCOc4ccc(C(=O)c5cc6ccc(N(CC)CC)cc6o5)cc4)CC3)CC2)cc1 | 24.7% | 76.7% | 81.1% | 42.7% | > 30 µM | 14.5 µM | – | – | – | – | – | – | – | – |
